Experimental findings from PubChem BioAssay (NCI) are described below.

What all share (experiment): DTP human tumour cell line panel, 48 h
Assay [1] has as its system CAKI-1 renal.
The subject of assay [2] is OVCAR-4 ovarian.
Assay [3] relates to NCI-H522 lung.
Assay [4] concerns RPMI-8226 leukemia.
For assay [5], the system named is UACC-257 melanoma.
Assay [6] has as its system K-562 leukemia.
The subject of assay [7] is CCRF-CEM leukemia.
Assay [8] has as its system T-47D breast.

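Assay format: 96-well plates, 48-hour exposure. GI50: concentration for 50% inhibition of growth. TGI marks complete inhibition of growth.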 A value given as a limit tells only on which side of the number the result lay.

What is called TGI is the concentration giving total growth inhibition. A lower TGI goes with greater sensitivity of the cells. As for `Cc1cc(=O)[nH]o1`, the TGI in assay [1], in assay [2], in assay [3], in assay [4], in assay [5] and in assay [6] was more than 100 µM throughout.
In general, GI50 refers to the concentration at which growth is held to half of that of the control. As to `CCCC[N+](CCCC)=c1ccc2nc3c(C)cc(N(CC)CC)cc3sc-2c1`, the concentration for 50% growth inhibition (GI50) was 0.183 µM in assay [1], 0.0517 µM in assay [2], 0.0571 µM in assay [4] and 0.0923 µM in assay [7]. The TGI is 1.1 µM in assay [1], 1.11 µM in assay [2], 1.58 µM in assay [4] and 3.42 µM in assay [7].
Regarding `CCOc1cc2c(cc1O)/C(=N\O)C[C@@H]1[C@@H]2CC[C@]2(C)[C@@H](O)CC[C@@H]12`, the figures for the GI50 in assay [2] and in assay [6] were 8.67 µM and 0.00978 µM, respectively. The figures for the TGI in assay [2], in assay [4] and in assay [6] were more than 100 µM, 0.0632 µM and more than 94.1 µM, respectively.
Regarding `Cc1ccc(Nc2n[nH]c(=S)s2)cc1`, the TGI in assay [1], in assay [8], in assay [4], in assay [5], in assay [7] and in assay [6] was more than 100 µM each time.
For the compound `CN(C)CCNC(=O)Cn1cc([N+](=O)[O-])c(=O)c2ccccc21`, the TGI in assay [1], in assay [8], in assay [3], in assay [5], in assay [7] and in assay [6] was more than 100 µM in each case.
In the case of `OCC1OC(OCC(O)C(O)C(O)C(/C=N/Nc2ccccc2)=N/Nc2ccccc2)C(O)C(O)C1O` (configuration not stated), the TGI is more than 100 µM in assay [1]; 56.9 µM in assay [8]; more than 100 µM in assay [4]; more than 100 µM in assay [5]; more than 100 µM in assay [7].
Take `COc1ccc2nc3cc(Cl)ccc3c(N3CCN(c4ccnc(N5CCOCC5)n4)CC3)c2c1`: the GI50 in assay [1] is more than 100 µM; in assay [3], 1.81 µM; in assay [4] it was 2.92 µM; in assay [5] it was more than 100 µM; in assay [7], 2.49 µM; in assay [6], 2.91 µM. Also, the TGI in assay [1] was more than 100 µM; in assay [3], 5.09 µM; in assay [4], 10.6 µM; in assay [5], more than 100 µM; in assay [7], more than 100 µM; in assay [6], more than 100 µM.
For the compound `COc1cnc2c(c1)C(=O)c1c-2n(CCCN2CCC(O)CC2)c(=O)c2cc(F)ccc12`, the GI50 in assay [8] is 0.0996 µM; in assay [3], 0.0584 µM; in assay [4] it was 0.109 µM; in assay [5] it was 0.296 µM; in assay [7], 0.0797 µM; in assay [6], 0.216 µM. The TGI is 0.86 µM in assay [8]; 0.479 µM in assay [3]; 0.63 µM in assay [4]; 1.81 µM in assay [5]; 1.95 µM in assay [7]; 2.31 µM in assay [6].
In the case of `C=CC[P+](c1ccccc1)(c1ccccc1)c1ccccc1`, the GI50 in assay [1] was 52.2 µM; in assay [2] it was 2.84 µM; in assay [3], 1.99 µM; in assay [4] it was 0.675 µM; in assay [5] it was 0.877 µM; in assay [7], 3.4 µM. The GI50 in assay [6] is 2.12 µM. The TGI is more than 100 µM in assay [1]; more than 100 µM in assay [2]; 20.8 µM in assay [3]; 32.2 µM in assay [4]; 6.66 µM in assay [5]; more than 100 µM in assay [7]. The compound further had a TGI in assay [6] of more than 100 µM.
As for `O=C(CCCN1CCOCC1)Nc1ccc(Cn2nnc3c2C(=O)c2nnn(Cc4ccc(NC(=O)CCCN5CCOCC5)cc4)c2C3=O)cc1`, the GI50 in assay [1] was more than 100 µM; in assay [2] it was 1.25 µM; in assay [3], 1.38 µM; in assay [4], 2.18 µM; in assay [5] it was 1.7 µM; in assay [7] it was 1.81 µM. Also, the GI50 in assay [6] was 4.28 µM. Further, the TGI in assay [1] is more than 100 µM; in assay [2] it was 2.51 µM; in assay [3], 3.59 µM; in assay [4], 7.48 µM; in assay [5], 3.23 µM; in assay [7] it was 6.32 µM. In assay [6], the TGI is more than 100 µM.
As to `O=C(CSC(c1ccccc1)c1ccccc1)N/N=C/c1cccc(Cl)c1`, the GI50 was 23.4 µM in assay [1]; 15 µM in assay [2]; 10.1 µM in assay [3]; 19 µM in assay [4]; 14.6 µM in assay [5]; 0.755 µM in assay [7]. Besides, in assay [6], the GI50 is 21.6 µM. The TGI in assay [1] came out at 52.5 µM; in assay [2], 30.8 µM; in assay [3] it was 23.7 µM; in assay [4], 41.7 µM; in assay [5], 32.1 µM; in assay [7], 31 µM. In assay [6], this compound came in with a TGI of 41.9 µM.
